Structures can show the parent of a compound that is named as a salt.
What was measured:
18f-NLuc reporter virus = assay: microbe, parasite or virus in culture; type: cell-based, Hepatitis A virus; settings: for activity at 10 µM: Hepatovirus A, Huh-7.5.1, 72 h, read-out: Normalized HAV production
Huh-7.5.1 cells = assay: Cell viability in the chemical screen (Cell TiterGlo); settings: 10 µM compound, 72 h

| Compound | activity at 10 µM (18f-NLuc reporter virus) [%] | Viability Percent DMSO (Huh-7.5.1 cells) [Percent DMSO] | Normalized HAV production (18f-NLuc reporter virus) |
| --- | --- | --- | --- |
| CC[n+]1c(-c2ccccc2)c2cc(N)ccc2c2ccc(N)cc21 [Ethidium bromide] | 4.56 | 85 | – |
| Nc1ccn([C@@H]2CS[C@H](CO)O2)c(=O)n1 [Lamivudine] | 86 | 120 | – |
| Cc1cc(/C=C/C#N)cc(C)c1Nc1ccnc(Nc2ccc(C#N)cc2)n1 [Rilpivirine] | 71 | 132 | – |
| C[C@H](NC(=O)C(=O)Nc1ccccc1C(C)(C)C)C(=O)N[C@@H](CC(=O)O)C(=O)COc1c(F)c(F)cc(F)c1F [Emricasan] | 164 | 90 | – |
| CC1(C)[C@@H](O[C@H]2O[C@H](C(=O)O)[C@@H](O)[C@H](O)[C@H]2O[C@@H]2O[C@H](C(=O)O)[C@@H](O)[C@H](O)[C@H]2O)CC[C@]2(C)[C@H]3C(=O)C=C4[C@@H]5C[C@@](C)(C(=O)O)CC[C@]5(C)CC[C@@]4(C)[C@]3(C)CC[C@@H]12 [Glycyrrhizin] | 79 | 124 | – |
| CC1(C)[C@@H](O[C@H]2O[C@H](C(=O)O)[C@@H](O)[C@H](O)[C@H]2O[C@@H]2O[C@H](C(=O)O)[C@@H](O)[C@H](O)[C@H]2O)CC[C@]2(C)[C@H]3C(=O)C=C4[C@@H]5C[C@@](C)(C(=O)O)CC[C@]5(C)CC[C@@]4(C)[C@]3(C)CC[C@@H]12.N.N [Diammonium Glycyrrhizinate] | – | 116 | 0.78 |
| O=S(=O)(CCC(F)=C(F)F)c1ncc(Cl)s1 [Fluensulfone] | – | 128 | 0.97 |
| C=C(C)[C@@H]1CC[C@]2(C(=O)O)CC[C@]3(C)[C@H](CC[C@@H]4[C@@]5(C)CC[C@H](O)C(C)(C)[C@@H]5CC[C@]43C)[C@@H]12 [Betulinic acid] | 75 | 116 | – |
| Cc1cn([C@H]2C=C[C@@H](CO)O2)c(=O)[nH]c1=O [Stavudine] | 101 | 101 | – |
| CN(C)CC[C@@H](c1ccc(Cl)cc1)c1ccccn1 [Dexchlorpheniramine Maleate] | 74 | 118 | – |
| CCOC(=O)c1c(CSc2ccccc2)n(C)c2cc(Br)c(O)c(CN(C)C)c12.Cl [Arbidol hydrochloride] | – | 105 | 0.78 |
| CCOC(=O)c1ccc(OCCC2CCN(c3ccc(C)nn3)CC2)cc1 [Pirodavir] | 91 | 134 | – |
| CN(C)C[C@H](O)Cn1c2ccc(Br)cc2c2cc(Br)ccc21 (racemic) [Wiskostatin] | 101 | 92 | – |
| O=c1[nH]cc(F)c(=O)[nH]1 [Fluorouracil] | 84 | 103 | – |
| NC(=O)c1nc(F)c[nH]c1=O [Favipiravir] | 56 | 128 | – |
| CO/N=C(\C(=O)N[C@@H]1C(=O)N2C(C(=O)O)=C(C[N+]3(C)CCCC3)CS[C@H]12)c1csc(N)n1 [Cefepime Dihydrochloride Monohydrate] | 73 | 116 | – |
| O=C(O)P(=O)(O)O [Foscarnet sodium] | 109 | 94 | – |
| O=C(O)[C@H]1O[C@@H](Oc2cc3oc(-c4ccccc4)cc(=O)c3c(O)c2O)[C@H](O)[C@@H](O)[C@@H]1O [Baicalin] | 81 | 114 | – |
| Cn1c(Cn2ccc(C(F)(F)F)c(Oc3cc(Cl)cc(C#N)c3)c2=O)n[nH]c1=O [Doravirine] | 140 | 95 | – |
| Darunavir Ethanolate | – | 111 | 1.54 |
| Cc1cn([C@@H]2C[C@@H](O)[C@H](CO)O2)c(=O)[nH]c1=O [Telbivudine] | 156 | 108 | – |
| O=C(Nc1ccccc1)c1ccccc1O [Salicylanilide] | 76 | 120 | – |
| CC(C)c1nc(CN(C)C(=O)N[C@@H](CCN2CCOCC2)C(=O)N[C@H](CC[C@H](Cc2ccccc2)NC(=O)OCc2cncs2)Cc2ccccc2)cs1 [Cobicistat] | 34 | 176 | – |

| Compound | activity at 10 µM (18f-NLuc reporter virus) [%] | Viability Percent DMSO (Huh-7.5.1 cells) [Percent DMSO] | Normalized HAV production (18f-NLuc reporter virus) |
| --- | --- | --- | --- |
| COC(=O)c1cc(OC)c2c(c1-c1c(CO)cc(OC)c3c1OCO3)OCO2 [Bicyclol] | 105 | 115 | – |
| CCn1cc(C(=O)O)c(=O)c2cc(F)c(N3CCNCC3)nc21 [Enoxacin] | 89 | 159 | – |
| O=c1[nH]c(=O)n([C@H]2C[C@H](O)[C@@H](CO)O2)cc1I [Dendrid] | 102 | 103 | – |
| O=C1C[C@@H](c2ccc(O)cc2)Oc2cc(O)cc(O)c21 [Naringenin] | 86 | 112 | – |
| C[C@@H]1CCO[C@H]2Cn3cc(C(=O)NCc4ccc(F)cc4F)c(=O)c(O)c3C(=O)N12 [Dolutegravir] | 49 | 159 | – |
| C[C@H](Cn1cnc2c(N)ncnc21)OCP(=O)(O)O [Tenofovir] | 128 | 118 | – |
| C=CC1=C(C(=O)O)N2C(=O)[C@@H](NC(=O)/C(=N\O)c3csc(N)n3)[C@H]2SC1 [Cefdinir] | 97 | 101 | – |
| Nc1nc2c(ncn2[C@@H]2O[C@H](CO)[C@@H](O)[C@H]2O)c(=O)[nH]1 [Guanosine] | 88 | 126 | – |
| CC[C@@H](CO)NCCN[C@@H](CC)CO [Ethambutol dihydrochloride] | 83 | 112 | – |
| C=C(C)[C@@H]1CC[C@]2(CO)CC[C@]3(C)[C@H](CC[C@@H]4[C@@]5(C)CC[C@H](O)C(C)(C)[C@@H]5CC[C@]43C)[C@@H]12 [Betulin] | 119 | 123 | – |
| Cc1cc(F)c(C(=O)Nc2cccc(-c3nncn3C(C)C)n2)cc1-n1cnc(C2CC2)c1 [Selonsertib] | 38 | 131 | – |
| Clc1ccc(Cn2c(CN3CCCC3)nc3ccccc32)cc1 [Clemizole] | 58 | 166 | – |
| COC[C@H]1C[C@@H](c2ncc(-c3ccc4c(c3)COc3cc5c(ccc6nc([C@@H]7CC[C@H](C)N7C(=O)[C@@H](NC(=O)OC)C(C)C)[nH]c65)cc3-4)[nH]2)N(C(=O)[C@H](NC(=O)OC)c2ccccc2)C1 [Velpatasvir] | 52 | 121 | – |
| CN[C@@H]1[C@H](O)[C@H](NC)[C@H]2O[C@@]3(O)C(=O)C[C@@H](C)O[C@H]3O[C@@H]2[C@H]1O.Cl.Cl [Spectinomycin dihydrochloride] | – | 109 | 0.83 |
| CC(C)(C)C(=O)OCOP(=O)(COCCn1cnc2c(N)ncnc21)OCOC(=O)C(C)(C)C [Adefovir dipivoxil] | 138 | 74 | – |
| Cc1cccc(C)c1N(CC(=O)Nc1ccc(-c2ncon2)cc1)C(=O)C1CCS(=O)(=O)CC1 [Amenamevir] | 109 | 116 | – |
| CC(C)(C)C#Cc1cc(N(C(=O)[C@H]2CC[C@H](C)CC2)[C@H]2CC[C@H](O)CC2)c(C(=O)O)s1 [Lomibuvir] | 97 | 125 | – |
| Cc1cnc(C(=O)N[C@H]2CCCCC/C=C\[C@@H]3C[C@@]3(C(=O)NS(=O)(=O)C3CC3)NC(=O)[C@@H]3C[C@@H](Oc4nc5ccccc5c5ccccc45)CN3C2=O)cn1 [Paritaprevir] | 64 | 91 | – |
| C[C@@H]1CC[C@H]2[C@@H](C)C(=O)O[C@@H]3O[C@@]4(C)CC[C@@H]1[C@]32OO4 [Artemisinin] | 76 | 101 | – |
| COC(=O)N[C@H](C(=O)N1CCC[C@H]1c1nc(-c2ccc(-c3ccc(-c4c[nH]c([C@@H]5CCCN5C(=O)[C@@H](NC(=O)OC)C(C)C)n4)cc3)cc2)c[nH]1)C(C)C [Daclatasvir dihydrochloride] | 88 | 125 | – |
| O=C(Nc1nc2ccc3scnc3c2s1)c1ccc2ccccc2c1 [KIN1148] | – | 107 | 1.39 |
| Cc1nc(N(C)C(=O)Cc2ccc(-c3ccccn3)cc2)sc1S(N)(=O)=O [Pritelivir] | 78 | 127 | – |

Reference: publication PMC12282101, “Heat shock protein 90 chaperone activity is required for hepatitis A virus replication” (Journal of Virology, 2025)
